Laboratory results from PMC3514653 (Neuromodulation : journal of the International …, 2012).
Where two headings read alike, the source gives them in different places. Marks after values point to notes of the source that are not given here.

How the values were obtained:
Male beagle dogs [1] = settings: dog, in vivo, iv, 0.1 mg/kg
Male beagle dogs [2] = settings: dog, in vivo
[3] = dog, in vivo
[4] = dog, in vivo; remark: listed apart in the source
Male beagle dogs [5] = settings: dog, in vivo; remark: listed apart in the source
Male beagle dogs [6] = settings: dog, in vivo; remark: listed apart in the source
[7] = in vivo; cited from earlier work
[8] = in vivo; cited from earlier work; remark: listed apart in the source
[9] = dog, in vivo; remark: listed apart in the source
in vivo [10] = settings: beagle, dog
in vivo [11] = settings: male, beagle, dog, 10 ug
in vivo [12] = settings: male, beagle, dog, iv, 0.1 mg/kg

**Q.** Which Respiratory rates (Male beagle dogs [1]) does the source give for `CSCC[C@@H]1NC(=O)[C@H](CC(C)C)NC(=O)[C@H](CCCNC(=N)N)NC(=O)[C@H](CO)NC(=O)[C@@H]2CSSC[C@@H]3NC(=O)[C@H](CO)NC(=O)CNC(=O)[C@H]([C@@H](C)O)NC(=O)[C@H](CSSC[C@H](N)C(=O)N[C@@H](CCCCN)C(=O)NCC(=O)N[C@@H](CCCCN)C(=O)NCC(=O)N[C@@H](C)C(=O)N[C@@H](CCCCN)C(=O)N2)NC(=O)[C@H](CSSC[C@@H](C(N)=O)NC(=O)[C@H](CCCCN)NC(=O)CNC(=O)[C@H](CO)NC(=O)[C@H](CCCNC(=N)N)NC3=O)NC(=O)[C@H](CC(=O)O)NC(=O)[C@H](Cc2ccc(O)cc2)NC1=O` [Ziconotide] here?
**A.** moderate decrease in respiratory rates for approximately 3 hr post injection

**Q.** What about the “Body temperature versus baseline” value (Male beagle dogs [2]) of the same compound?
**A.** not different from pretreatment baseline measurements

**Q.** And the “Time for elevated temperatures to return to baseline” value (Male beagle dogs [2])?
**A.** 24 to 72 h

**Q.** And the “Body temperature versus baseline” value (Male beagle dogs [2]; iv)?
**A.** not different from pretreatment baseline measurements

**Q.** And the “CSF : plasma ratio” value [3]?
**A.** approximately 20,000: 1

**Q.** And the “Time of peak concentration in LCSF” value [3]?
**A.** ≤ 3 min

**Q.** What about the Vz/F [3] of the same compound?
**A.** 12932 – 33328^b mL

**Q.** What about the “LCSF: cisternal ratio at steady state” value [4] of the same compound?
**A.** ~1: 0.02

**Q.** And the “Plasma concentration relative to that in the cisterna” value [4]?
**A.** approximately 0.1 times

**Q.** What about the “Ratio of LCSF concentrations at infusion doses 1 and 5 µg/hr” value [4] of the same compound?
**A.** approximately 1: 4

**Q.** What about the “Terminal elimination T1/2 after termination of continuous infusion” value [4] of the same compound?
**A.** 2.47 h

**Q.** And the “Time to peak plasma level” value [4]?
**A.** ≤ 8 h

**Q.** What about the “Plasma concentration at steady state, 8–48 hr group mean” value ([4]; male, beagle, 5 ug/hr) of the same compound?
**A.** 1.12 ng/mL

**Q.** And the “Blood pressure and heart rate effect” value (Male beagle dogs [5])?
**A.** modest decline in mean, diastolic, and systolic pressures and a mild tachycardia

**Q.** And the “Effect upon blood pressure” value (Male beagle dogs [5])?
**A.** no effect upon blood pressure

**Q.** What about the “Effect upon mean, diastolic, and systolic blood pressures” value (Male beagle dogs [5]) of the same compound?
**A.** prominent reduction that persisted for the remainder of the infusion

**Q.** What about the “Duration of fall in blood pressures” value (Male beagle dogs [5]; iv, 0.1 mg/kg) of the same compound?
**A.** > 8 h

**Q.** What about the “Effect upon heart rate” value (Male beagle dogs [5]; iv, 0.1 mg/kg) of the same compound?
**A.** corresponding tachycardia

**Q.** And the “Fall in mean, diastolic, and systolic pressures” value (Male beagle dogs [5]; iv, 0.1 mg/kg)?
**A.** approximately 40 mmHg

**Q.** And the “Arousal, muscle tone, and coordination” value (Male beagle dogs [6])?
**A.** not affected

**Q.** And the “Diarrhea, dogs affected” value (Male beagle dogs [6])?
**A.** 3 of the 5

**Q.** And the “Severity of whole body trembling and ataxia” value (Male beagle dogs [6])?
**A.** tendency for this to increase in severity

**Q.** And the “Whole body trembling, dogs affected” value (Male beagle dogs [6])?
**A.** 3 of the 5

**Q.** And the “Persistence of observed effects” value (Male beagle dogs [6]; iv, 0.1 mg/kg)?
**A.** absent 24 hr post injection

**Q.** And the “Scleral vasodilation and facial erythema, dogs affected” value (Male beagle dogs [6]; iv, 0.1 mg/kg)?
**A.** 2 of the 5

**Q.** What about the “Vomiting, dogs affected” value (Male beagle dogs [6]; iv, 0.1 mg/kg) of the same compound?
**A.** 4 of the 5

**Q.** And the “Median LCSF half-life” value [7]?
**A.** 4.5 h

**Q.** And the Volume of distribution [7]?
**A.** 99 mL

**Q.** What about the “Diffusion of the peptide in rat brain parenchyma” value [8] of the same compound?
**A.** less than 1 mm

**Q.** What about the “Elimination T1/2 in CSF following IV injection” value [9] of the same compound?
**A.** 1.64 h

**Q.** And the “Elimination T1/2 in plasma following IV injection” value [9]?
**A.** 0.75 h

**Q.** And the “Elimination half life after bolus IV delivery” value [9]?
**A.** 1.6 h

**Q.** And the “FCSF (absolute bioavailability in CSF after bolus IV)” value [9]?
**A.** 0.013%

**Q.** And the CL/F (in vivo [10]; CL/F (infusion rate divided by steady-state concentration))?
**A.** 134 mL/min

**Q.** And the level at 48 h (in vivo [10]; male, 5 ug/hr)?
**A.** 13.5 ng/mL

**Q.** What about the CL/F (in vivo [11]) of the same compound?
**A.** 196 mL/min

**Q.** What about the Vd/F (in vivo [11]) of the same compound?
**A.** 17.2 L

**Q.** What about the AUC(0-inf) (in vivo [11]; AUC∞) of the same compound?
**A.** 0.85 ng·h/mL

**Q.** What about the bioavailability (in vivo [11]; iv) of the same compound?
**A.** 53.5%

**Q.** What about the Cmax (in vivo [12]) of the same compound?
**A.** ~900 ng/mL
